pEC50, pIC50: −log10 of the molar value. The source made the active and inactive calls. No cut-off for these calls is given here.
Legend:
[1] = target: T1, Cannabinoid receptor 1 (Homo sapiens, UniProt P21554); assay: Antagonist activity at human CB1 receptor expressed in HEK293 cells assessed as effect on [35S]gammaGTP binding relative to control; type: cell-based
[2] = target: T1, Cannabinoid receptor 1; assay: Antagonist activity at human CB1 receptor expressed in HEK293 cells assessed as inhibition of Eu-GTP binding; type: cell-based
[3] = target: T1, Cannabinoid receptor 1; assay: biochemical; type: cell-based, HEK293
Description: Displacement of [3H]CP-55940 from human CB1 receptor expressed in HEK293 cells

[4] = test system: HEK293; assay: Selectivity ratio of IC50 for human CB2 receptor to human CB1 receptor expressed in HEK293 cells; type: cell-based
[5] = target: Cannabinoid receptor 2 (Homo sapiens, UniProt P34972); assay: Displacement of [3H]CP-55940 from human CB2 receptor expressed in HEK293 cells; type: cell-based
[6] = target: T1, Cannabinoid receptor 1; assay: Agonist activity at human CB1 receptor expressed in HEK293 cells assessed as increase in [35S]gammaGTP binding relative to control; type: cell-based
[7] = target: T1, Cannabinoid receptor 1; assay: Displacement of [3H]SR141716A from human CB1 receptor expressed in HEK293 cells; type: cell-based

T1 sequence (P21554 whole entry): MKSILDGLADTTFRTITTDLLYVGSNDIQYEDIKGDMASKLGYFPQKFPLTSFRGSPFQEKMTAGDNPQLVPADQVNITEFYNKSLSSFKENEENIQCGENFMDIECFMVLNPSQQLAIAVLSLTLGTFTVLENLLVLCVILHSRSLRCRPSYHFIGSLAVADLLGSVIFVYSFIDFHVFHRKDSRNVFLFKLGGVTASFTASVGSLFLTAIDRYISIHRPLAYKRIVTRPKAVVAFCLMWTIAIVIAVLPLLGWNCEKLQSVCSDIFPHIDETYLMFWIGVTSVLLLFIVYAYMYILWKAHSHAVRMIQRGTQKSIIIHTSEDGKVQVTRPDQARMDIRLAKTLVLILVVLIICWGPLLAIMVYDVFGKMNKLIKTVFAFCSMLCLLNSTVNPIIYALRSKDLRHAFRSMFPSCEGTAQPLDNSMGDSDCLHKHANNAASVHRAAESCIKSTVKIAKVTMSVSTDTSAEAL
Chain of Cannabinoid receptor 2 (P34972 whole entry): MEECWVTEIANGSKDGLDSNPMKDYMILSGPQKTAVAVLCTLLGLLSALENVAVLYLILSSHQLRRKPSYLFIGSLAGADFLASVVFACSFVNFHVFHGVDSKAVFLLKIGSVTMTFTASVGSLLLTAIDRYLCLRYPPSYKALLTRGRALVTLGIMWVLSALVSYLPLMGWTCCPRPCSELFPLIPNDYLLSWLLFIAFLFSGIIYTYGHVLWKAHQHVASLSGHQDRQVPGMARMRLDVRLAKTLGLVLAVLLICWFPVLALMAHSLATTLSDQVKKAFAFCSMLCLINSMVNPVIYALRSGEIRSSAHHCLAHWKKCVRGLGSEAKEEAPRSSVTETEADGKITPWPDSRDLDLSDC

SMILES	Activity [1]	pEC50 [2]	pIC50 [3]	Ratio IC50 [4]	pIC50 [5]	Activity [6]	pIC50 [7]
Cc1c(C(=O)NN2CCCCC2)nn(-c2ccc(Cl)cc2Cl)c1-c1ccc(C#CC2CC2)s1	Active	7.14	7.22	70	5.37	–	–
Cc1c(C(=O)NN2CCCCC2)nn(-c2ccc(Cl)cc2Cl)c1-c1ccc(C#CCCc2ccccc2)s1	–	7.69	8.21	285	5.76	Active	–
CCOCC#Cc1ccc(-c2c(C)c(C(=O)NN3CCCCC3)nn2-c2ccc(Cl)cc2Cl)s1	–	7.59	7.90	78	6.01	–	–
CCCCC#Cc1ccc(-c2c(C)c(C(=O)NN3CC4CCCC4C3)nn2-c2ccc(Cl)cc2Cl)s1 (configuration not stated)	–	8.24	8.89	122	6.80	Active	–
CCCCC#Cc1ccc(-c2c(C)c(C(=O)NN3CCCCCC3)nn2-c2ccc(Cl)cc2Cl)s1	–	8.32	8.77	332	6.25	Active	–
Cc1c(C(=O)NN2CCCCC2)nn(-c2ccc(Cl)cc2Cl)c1-c1ccc(C#CCOc2ccccc2)s1	Active	7.73	7.37	164	5.15	–	–
CCC#Cc1ccc(-c2c(C)c(C(=O)NN3CCCCC3)nn2-c2ccc(Cl)cc2Cl)s1	Active	7.29	7.18	66	5.36	–	–
CCc1c(C(=O)NN2CCCCC2)nn(-c2ccc(Cl)cc2Cl)c1-c1ccc(C#CCC(C)C)s1	–	7.64	8.29	236	5.92	–	–
CCC#Cc1ccc(-c2c(C)c(C(=O)NN3CC4CCCC4C3)nn2-c2ccc(Cl)cc2Cl)s1 (configuration not stated)	Active	7.45	7.55	33	6.04	–	–
CCCCC#Cc1ccc(-c2c(C)c(C(=O)NCCCC)nn2-c2ccc(Cl)cc2Cl)s1	–	7.53	8.52	213	6.20	Active	–
CCCC#Cc1ccc(-c2c(C)c(C(=O)NN3CC4CCCC4C3)nn2-c2ccc(Cl)cc2Cl)s1 (configuration not stated)	Active	7.72	8.10	99	6.11	–	–
Cc1c(C(=O)NN2CC3CCCC3C2)nn(-c2ccc(Cl)cc2Cl)c1-c1ccc(C#CC(C)(C)C)s1 (configuration not stated)	–	6.80	7.66	53	5.94	Active	–
CCCCCc1ccc(-c2c(C)c(C(=O)NN3CC4CCCC4C3)nn2-c2ccc(Cl)cc2Cl)s1 (configuration not stated)	–	7.32	7.69	178	5.44	–	–
COCC#Cc1ccc(-c2c(C)c(C(=O)NN3CCCCC3)nn2-c2ccc(Cl)cc2Cl)s1	–	6.85	7.19	42	5.56	–	–
CCC/C=C/c1ccc(-c2c(C)c(C(=O)NN3CCCCC3)nn2-c2ccc(Cl)cc2Cl)s1	–	6.84	7.67	178	5.42	–	–
Cc1c(C(=O)NN2CC3CCCC3C2)nn(-c2ccc(Cl)cc2Cl)c1-c1ccc(C#CC2CCCC2)s1 (configuration not stated)	–	7.00	7.98	86	6.04	Active	–
Cc1c(C(=O)NN2CC3CCCC3C2)nn(-c2ccc(Cl)cc2Cl)c1-c1ccc(C#CC2CCCCC2)s1 (configuration not stated)	–	6.53	8.11	221	5.76	Active	–
Cc1c(C(=O)NN2CCCCC2)nn(-c2ccc(Cl)cc2Cl)c1-c1ccc(C#CCOC(C)C)s1	–	7.24	7.63	76	5.75	Active	–

SMILES	Activity [1]	pEC50 [2]	pIC50 [3]	Ratio IC50 [4]	pIC50 [5]	Activity [6]	pIC50 [7]
CCCC#Cc1ccc(-c2c(CC)c(C(=O)NN3CCCCCC3)nn2-c2ccc(Cl)cc2Cl)s1	–	7.78	8.05	34	6.51	–	8.92
CCCCC#Cc1ccc(-c2c(C)c(C(=O)NN3CCCCC3)nn2-c2ccc(Cl)cc2Cl)s1	–	8.10	8.85	222	6.51	Active	–
Cc1c(C(=O)NN2CCCCC2)nn(-c2ccc(Cl)cc2Cl)c1-c1ccc(C#CC(C)(C)C)s1	–	7.54	7.49	59	5.72	Active	–
Cc1c(C(=O)NN2CCCCC2)nn(-c2ccc(Cl)cc2Cl)c1-c1ccc(Br)s1	–	7.17	7.45	25	6.05	–	–
Cc1c(C(=O)NN2CCCCC2)nn(-c2ccc(Cl)cc2Cl)c1-c1ccc(C#CC2CCCCC2)s1	–	6.35	8.14	216	5.80	Active	–
CCC#Cc1ccc(-c2c(C)c(C(=O)NN3CCCCCC3)nn2-c2ccc(Cl)cc2Cl)s1	Active	7.44	7.62	44	5.98	–	–
Cc1c(C(=O)NN2CC3CCCC3C2)nn(-c2ccc(Cl)cc2Cl)c1-c1ccc(C#CC2CC2)s1 (configuration not stated)	Active	6.98	7.68	272	5.24	–	–
CCCCC#Cc1ccc(-c2c(C)c(C(=O)NC3CCCCC3)nn2-c2ccc(Cl)cc2Cl)s1	–	7.36	8.68	133	6.56	Active	–
Cc1c(C(=O)NN2CCCCC2)nn(-c2ccc(Cl)cc2Cl)c1-c1ccc(C#CCNC(C)C)s1	–	6.41	7.08	87	5.14	–	–
Cc1c(C(=O)NN2CCCCC2)nn(-c2ccc(Cl)cc2Cl)c1-c1ccc(C#CCN(C)C)s1	–	6.46	6.91	10	5.90	–	–
Cc1c(C(=O)NN2CCCCCC2)nn(-c2ccc(Cl)cc2Cl)c1-c1ccc(Br)s1	–	7.19	7.39	17	6.15	–	–
CCCCC#Cc1ccc(-c2c(C)c(C(=O)NCCCCCC)nn2-c2ccc(Cl)cc2Cl)s1	–	7.13	8.59	100	6.58	Active	–
CCCCCc1ccc(-c2c(C)c(C(=O)NN3CCCCC3)nn2-c2ccc(Cl)cc2Cl)s1	–	7.12	7.24	109	5.20	–	–
CCC/C=C/c1ccc(-c2c(C)c(C(=O)NN3CC4CCCC4C3)nn2-c2ccc(Cl)cc2Cl)s1 (configuration not stated)	–	7.15	7.56	197	5.27	–	–
Cc1c(C(=O)NN2CCCCC2)nn(-c2ccc(Cl)cc2Cl)c1-c1ccc(C#CC2CCCC2)s1	–	7.61	8.15	255	5.74	Active	–
Cc1c(C(=O)NN2CCCCC2)nn(-c2ccc(Cl)cc2Cl)c1-c1ccc(Cl)s1	–	6.83	7.30	26	5.89	–	–
Cc1c(C(=O)NN2CCCCCC2)nn(-c2ccc(Cl)cc2Cl)c1-c1ccc(Cl)s1	–	6.87	6.80	14	5.67	–	–

Reference: ChEMBL document CHEMBL1140049, “Bioisosteric replacement of the pyrazole 5-aryl moiety of N-(piperidin-1-yl)-5-(4-chlorophenyl)-1-(2,4-dichlorophenyl)-4-methyl-1H-pyrazole-3-carboxamide (SR141716A). A novel series of alkynylthiophenes as potent and selective cannabinoid-1 receptor antagonists” (J Med Chem, 2008)
